Data as given in ChEMBL document CHEMBL5154677, “On-Demand Activation of a Bioorthogonal Prodrug of SN-38 with Fast Reaction Kinetics and High Releasing Efficiency In Vivo” (J Med Chem, 2022).
≈ marks a conversion by molar mass, not a printed value.

Assays:
[1] = Dissociation constant , pKa of the compound; assay type: physicochemical
[2] = Prodrug activation in human A549 cells xenografted in nude mouse assessed as drug release by measuring increase in yellow fluorescence at 5 mg/kg, iv in presence of bis(pinacolato)diboron administered every 5 mins for 1 hr by FITC staining based confocal laser scanning microscopy; assay type: organism-based; conditions: in vivo
[3] = Prodrug activation in human A549 cells assessed as reduction in blue fluorescence at 100 nM incubated for 72 to 120 hrs using DAPI staining based laser confocal fluorescence microscopy; assay type: cell-based; conditions: a549, 0.1 µM, time 72-120 hrs
A549 [4] = assay: Cytotoxicity against human A549 cells assessed as reduction in cell viability incubated for 72 hrs in presence of bis(pinacolato)diboron by CCK-8 assay; assay type: functional, cell-based; conditions: A549, 72 h
[5] = Prodrug activation in human A549 cells xenografted in nude mouse assessed as drug release by measuring increase in yellow fluorescence at 5 mg/kg, iv administered every 5 mins for 1 hr by FITC staining based confocal laser scanning microscopy; assay type: organism-based; conditions: in vivo
[6] = Drug uptake in human A549 cells assessed as drug internalization by measuring increase in fluorescence intensity at 100 uM incubated for 1 hr by FITC staining based confocal fluorescence microscopy; assay type: ADME, cell-based; conditions: a549, 1 h
[7] = Prodrug activation in human A549 cells assessed as SN-38 release by measuring increase in blue fluorescence intensity at 100 uM in presence of bis(pinacolato)diboron incubated for 1 hr by DAPI staining based confocal fluorescence microscopy; assay type: cell-based; conditions: a549, 1 h
A549 [8] = assay: Cytotoxicity against human A549 cells assessed as cell growth inhibition incubated for 120 hrs in presence of bis(pinacolato)diboron by CCK-8 assay; assay type: functional, cell-based; conditions: A549, 120 h
[9] = Stability of the prodrug in PBS at pH 6.5 assessed as suppression of hydrolytic opening of the lactone ring by LC-MS analysis; assay type: physicochemical; conditions: buffer
[10] = Prodrug activation in human A549 cells assessed as increase in yellow fluorescence at 100 nM incubated for 72 to 120 hrs using FITC staining based laser confocal fluorescence microscopy; assay type: cell-based; conditions: a549, 0.1 µM, time 72-120 hrs
[11] = Prodrug activation in human A549 cells assessed as SN-38 release by measuring increase in yellow fluorescence at 100 uM in presence of bis(pinacolato)diboron incubated for 1 hr by FITC staining based confocal fluorescence microscopy; assay type: cell-based; conditions: a549, 1 h
[12] = Cytotoxicity against HEK293T cells assessed as reduction in cell viability measured after 72 hrs by CCK-8 assay; assay type: toxicity, cell-based, HEK-293T; conditions: human
[13] = Drug uptake in human A549 cells assessed as drug internalization by measuring blue fluorescence at 100 uM incubated for 1 hr by DAPI staining based confocal fluorescence microscopy; assay type: ADME, cell-based; conditions: a549, 1 h
[14] = Stability of prodrug in PBS at pH 7.4 assessed as retention time of drug released measured after 24 hrs by LC-MS analysis; assay type: physicochemical; conditions: buffer, pH 7.4, 24 h
[15] = Solubility of compound in PBS; assay type: physicochemical; conditions: buffer
A549 [16] = assay: Cytotoxicity against human A549 cells assessed as cell growth inhibition incubated for 120 hrs by CCK-8 assay; assay type: functional, cell-based; conditions: A549, 120 h
[17] = Prodrug activation in human A549 cells xenografted in nude mouse assessed as drug release by measuring reduction in blue fluorescence at 5 mg/kg, iv in presence of bis(pinacolato)diboron administered every 5 mins for 1 hr by DAPI staining based confocal laser scanning microscopy; assay type: organism-based; conditions: in vivo
A549 [18] = assay: Cytotoxicity against human A549 cells assessed as reduction in cell viability measured after 72 hrs by CCK-8 assay; assay type: functional, cell-based; conditions: A549, 72 h
[19] = Stability of prodrug in PBS at pH 7.4 assessed as 7-hydroxylcoumarin formation at 1 uM measured after 24 hrs by HPLC analysis; assay type: physicochemical; conditions: buffer, pH 7.4, 24 h

With Nc1ccc(CO)cc1 the pKa [1] was 9.68.
For CCc1c2c(nc3ccc(OCc4ccc([N+](C)(C)[O-])cc4)cc13)-c1cc3c(c(=O)n1C2)COC(=O)[C@]3(O)CC, the Drug metabolism [2] was “Metabolite_Detected”, the Drug metabolism [3] was “Metabolite_Detected” and the IC50 (A549 [4]) was 29.6 nM. The Drug metabolism [5] was “Metabolite_Notdetected”, the Drug uptake [6] was “Active” and the Drug metabolism [7] was “Metabolite_Detected”. For the same compound, the IC50 (A549 [8]) was 9.2 nM, the Stability [9] was “Stable” and the Drug metabolism [10] was “Metabolite_Detected”. The Drug metabolism [11] was “Metabolite_Detected”, the IC50 at 72 h [12] was 66.3 nM and the Drug uptake [13] was “Active”. It also gave a Retention_time [14] of 1.8 min, a solubility [15] of 3.2736 µM (≈ 1.77 µg/mL) and an IC50 (A549 [16]) of 17.1 nM. The Drug metabolism [17] was “Metabolite_Detected” and the IC50 (A549 [18]) was 128 nM.
CN(C)c1ccc(CO)cc1 showed an IC50 at 72 h [12] greater than 100000 nM.
For C[N+](C)([O-])c1ccc(COc2ccc3ccc(=O)oc3c2)cc1, the Stability [19] was “Stable”.
Work on CCc1c2c(nc3ccc(O)cc13)-c1cc3c(c(=O)n1C2)COC(=O)[C@]3(O)CC [7-ETHYL-10-HYDROXYCAMPTOTHECIN] yielded an IC50 at 72 h [12] of 14.2 nM, a solubility [15] of 0.01101 µM (≈ 0.00432 µg/mL) and a pKa [1] of 9.2. The IC50 (A549 [16]) was 3.8 nM and the IC50 (A549 [18]) was 11.9 nM.
